Data as given in patent US4868207A, “Bis (methylenedioxy) biphenyl compounds useful for the treatment of liver diseases” (priority 1988, dated 1989).
“Also recorded” adds a separate entry of the source.

How the values were obtained:
Assay type in all cases: in vivo
[1] = tested on: acetaminophen-intoxicated mice; assay: Effect on SGPT, SGOT and liver triglyceride levels in acetaminophen-intoxicated mice; conditions: for Liver triglyceride / SGPT / SGOT: oral; for Liver triglyceride: control 57.4 ± 18.3; for SGPT / SGOT: ± SD; for SGPT: control 1504 ± 330; for SGOT: control 1695 ± 390
Text: (§1) Throughout the following experiments, male mice weighing 18-22 g were used, and unless otherwise indicated, the compound of the present invention [6-methoxycarbonyl-6'-hydroxymethyl-2,3,2',3'-bis(methylenedioxy)-4,4'-dimethoxybiphenyl (hereinafter referred to as "Compound 1")]]and DDB of a comparative drug are each suspended in 2% of Tween-80 before administered orally.
(B) Effect on SGPT, SGOT and liver triglyceride levels in acetaminophen-intoxicated mice
Thirty six mice were divided equally into 4 groups. On the first day, one group was given 2% of Tween-80 as control, while other groups were each given two doses of Compound 1 at an interval of 8 hours. All mice were injected i.p. 110 mg/kg of acetaminophen 16 hours after the last administration of Compound 1. After fasting overnight, all mice were decapited. SGPT, SGOT and liver triglyceride levels were determined.

drug metabolism enzyme = assay: Effect on pentobarbital sleeping time in mice; conditions: for Sleeping time: 200 mg/kg oral, ± SD, control 49 ± 22
Method: (E) Effect on pentobarbital sleeping time in mice (10 mice per group)
Three groups of 10 mice were used in this experiment. […] The mice of control were given physiological saline. The interval between the lose and return of righting reflex of each mouse was recorded as sleeping time.

male kunming strain mice = assay: Acute toxicity; conditions: 3 g/20 ml/kg and 6 g/20 ml/kg, oral
Method: Ten male kunming strain mice weighing 18-20 g were used, and starved overnight. Compound 1 was suspened in 0.2% CMC-Na, and 5 mice were given orally compound 1 in a dose of 3 g/20 ml/kg. The other 5 mice were given 6 g/20 ml/kg.

[2] = tested on: thioacetamide-intoxicated mice; assay: Effect on SGPT, SGOT and liver triglyceride levels in thioacetamide-intoxicated mice; conditions: for Liver triglyceride / SGOT / SGPT: oral; for Liver triglyceride: control 104 ± 35; for SGOT / SGPT: ± SD; for SGOT: control 1174 ± 435, Compound 1 P < 0.001; for SGPT: control 2365 ± 1045, Compound 1 P < 0.05
Text: as §1
(§2) Each group consisted of nine mice. The treated groups of mice were given three doses of Compound 1 twice at an interval of 8 hours on the first day, while one group was given corresponding volume of 2% of Tween-80 as control. At 4 p.m. of the second day, all mice were given i.p. 10 ml/kg of 0.1% of carbon tetrachloride in peanut oil. After a 16 hour fasting, all mice were sacrificed by decapitation. Serum transaminase (SGPT, SGOT) levels were determined.
(D) Effect on SGPT, SGOT and liver triglyceride levels in thioacetamide-intoxicated mice (9 mice per group)
Each group consisted of nine mice. The procedure of this experiment was just the same as mentioned in carbon tetrachloride-hepatotoxicity test. Only 50 mg/kg of thioacetamide was instread of carbon tetrachloride.

[3] = tested on: carbon tetrachloride-intoxicated mice; assay: Effect on SGPT and SGOT levels in carbon tetrachloride-intoxicated mice; conditions: for SGOT / SGPT: oral, ± SD; for SGOT: control 2087 ± 131; for SGPT: control 3110 ± 50
Text: as §1
Effect on SGPT and SGOT levels in carbon tetrachloride-intoxicated mice (9 mice per group)
as §2

[4] = tested on: mortality induced by acetaminophen in mice; assay: Effect on mortality induced by acetaminophen in mice; conditions: 200 mg/kg
Text: as §1
(C) Effect on mortality induced by acetaminophen in mice (14 mice per group)
Each group consisted of 14 mice. The procedure of the treatment was the same as mentioned in the item (B). All mice were given i.p. 400 mg/kg of acetaminophen 24 hours after the second dose of Compound 1. Survival numbers of mice were recorded within 5 days.

[5] = 200 mg/kg (DDB 200 mg/mg [sic])
[6] = 200 mg/kg (DDB 200 mg/mg [sic]), Compound 1 P < 0.001
[7] = 200 mg/kg (DDB 200 mg/mg [sic]), DDB P < 0.05, Compound 1 P < 0.001
[8] = 1 hr before pentobarbital 50 mg/kg i.p., P DDB <0.05, Compound 1 <0.001
[9] = 24 hrs before pentobarbital 50 mg/kg i.p., P DDB <0.01, Compound 1 <0.001
[10] = 200 mg/kg, DDB P < 0.05, Compound 1 P < 0.001

Structure (SMILES): COC(=O)c1cc(OC)c2c(c1-c1c(CO)cc(OC)c3c1OCO3)OCO2 [Compound 1, 6-methoxycarbonyl-6'-hydroxymethyl-2,3,2',3'-bis(methylenedioxy)-4,4'-dimethoxybiphenyl]
- Liver triglyceride ([1]; 100 mg/kg): 52.0 ± 13.8 mg/kg
- SGPT ([1]; 100 mg/kg, P < 0.05): 935 ± 660 u/dl
- SGOT ([1]; 100 mg/kg, P < 0.05): 1000 ± 651 u/dl
- Liver triglyceride [1, 5]: 50.0 ± 27.6 mg/kg
- SGPT [1, 6]: 550 ± 495 u/dl
- SGOT [1, 7]: 565 ± 522 u/dl
- lowering SGPT and SGOT levels elevated by acetaminophen ([1]; 200 mg/kg, 100 mg/kg, result in words): effective in lowering SGPT and SGOT levels
- liver lesions such as inflammation and necrosis ([1]; result in words): ameliorated
- liver triglyceride level elevated by acetaminophen ([1]; result in words): reduced
- protective effect against hepatotoxicity induced by acetaminophen ([1]; result in words): protective effect against hepatotoxicity
- Sleeping time (drug metabolism enzyme; [8]): 214 ± 85 min
- Sleeping time (drug metabolism enzyme; [9]): 20 ± 8 min
- pentobarbital sleeping time (drug metabolism enzyme; 200 mg/kg, one hour before pentobarbital, result in words): significantly prolonged
- pentobarbital sleeping time (drug metabolism enzyme; 24 hours prior to pentobarbital, result in words): markedly shortened
- action on drug metabolism enzyme (drug metabolism enzyme; indirectly indicated by sleeping time, result in words): inductive action on drug metabolism enzyme; also recorded: increases the activity of drug metabolism enzymes
- death (male kunming strain mice; within 2 weeks): no death occured
- change of the behavior of the mice (male kunming strain mice; within 48 hours): No noticeable change of the behavior of the mice
- Liver triglyceride ([2]; 200 mg/kg): 115 ± 31 mg/kg
- SGOT ([2]; 200 mg/kg): 565 ± 130 u/dl
- SGPT ([2]; 200 mg/kg): 1430 ± 550 u/dl
- lowering SGPT and SGOT levels elevated by thioacetamide ([2]; 200 mg/kg, result in words): effective in lowering SGPT and SGOT levels
- protective effect against hepatotoxicity induced by thioacetamide ([2]; result in words): protective effect against hepatotoxicity
- SGOT ([3]; 50 mg/kg, 9 mice per group): 1826 ± 203 u/dl
- SGPT ([3]; 50 mg/kg, 9 mice per group): 2523 ± 273 u/dl
- SGOT ([3]; 100 mg/kg): 1739 ± 192 u/dl
- SGPT ([3]; 100 mg/kg, Compound 1 P < 0.01): 2126 ± 371 u/dl
- SGPT level ([3]; 100 mg/kg, result in words): markedly decreased
- SGOT ([3]; 200 mg/kg, Compound 1 P < 0.01): 1362 ± 148 u/dl
- SGPT [3, 10]: 947 ± 236 u/dl
- SGOT level vs carbon tetrachloride control ([3]; 200 mg/kg, result in words): significantly lowered
- SGPT level vs carbon tetrachloride control ([3]; 200 mg/kg, result in words): significantly lowered
- protection against carbon tetrachloride hepatotoxicity ([3]; result in words): protective effect against hepatotoxicity; also recorded: effective in protection against carbon tetrachloride hepatotoxicity
- Number of survival ([4]; 400 mg/kg acetaminophen i.p., of 14 mice, within 5 days, control 3): 11
- Mortality ([4]; 400 mg/kg acetaminophen i.p., within 5 days, control 78): 21%
- mortality of mice induced by acetaminophen ([4]; result in words): significantly decreased

Structure (SMILES): COC(=O)c1cc(OC)c2c(c1-c1c(C(=O)OC)cc(OC)c3c1OCO3)OCO2 [DDB, dimethyl 4,4'-dimethoxy-5,6,5',6'-dimethylenedioxybiphenyl-2,2'-dicarboxylate, reference compound]
- Liver triglyceride [1, 5]: 56.2 ± 27.6 mg/kg
- SGPT [1, 6]: 1100 ± 660 u/dl
- SGOT [1, 7]: 1130 ± 651 u/dl
- Sleeping time (drug metabolism enzyme; [8]): 91 ± 57 min
- Sleeping time (drug metabolism enzyme; [9]): 23 ± 10 min
- Liver triglyceride ([2]; 200 mg/kg): 135 ± 46 mg/kg
- SGOT ([2]; 200 mg/kg): 1217 ± 261 u/dl
- SGPT ([2]; 200 mg/kg): 2035 ± 770 u/dl
- SGOT ([3]; 50 mg/kg, 9 mice per group): 1922 ± 174 u/dl
- SGPT ([3]; 50 mg/kg, 9 mice per group): 2701 ± 243 u/dl
- SGOT ([3]; 100 mg/kg): 2019 ± 130 u/dl
- SGPT ([3]; 100 mg/kg, Compound 1 P < 0.01): 2965 ± 221 u/dl
- SGOT ([3]; 200 mg/kg, Compound 1 P < 0.01): 1700 ± 185 u/dl
- SGPT [3, 10]: 2303 ± 318 u/dl
